Measured values as given in a melting point compilation (Tetko et al.; mined from patent text by program, amines drawn as free bases though some values may be those of a salt).

SMILES | melting point
COc1cc([N+](=O)[O-])ccc1S(=O)(=O)n1c(=O)n(C2CCCCC2)c2cc(Cl)ccc21 | 185 °C
O=C1OC(C(O)CO)CCN1Cc1ccccc1 (configuration not stated) | 100 to 102 °C
CC1(C)CCC(C)(C)c2cc3c(cc21)CCc1nc(-c2ccc(C(=O)O)cc2)sc1-3 | 275 to 278 °C
N#CN1CCC2(CC1)C(=O)c1cc(Cl)ccc1Sc1ccccc12 | 142 °C
Cc1oc(-c2ccccc2)nc1CCOc1ccc(CC(C)(C)C(=O)O)cc1 | 133 to 134 °C
COCCNc1cc(Sc2ccc(Cl)cc2)nc(-c2ccc(OC)cc2)n1 | 117 to 118 °C
COc1cccc2c1CC=CC2 | 44.3 to 45 °C
CCCCCCC1=C(O)C(=O)CO1 | 51 to 52 °C
O=C(Nc1ccc2ccc(-c3ccc(Cl)cc3)nc2n1)c1cccc(Cl)c1 | 222 to 224 °C
CCCCCCn1cnc2cnc3ccccc3c21 | 75 to 77 °C
CCCc1nn(C)c2c(=O)[nH]c(Cc3ccc(N(CC)CC)cc3)nc12 | 201 to 203 °C
CCCc1c(OCCCCCC(=O)c2cc(OC)c(OC)cc2F)ccc(C(=O)O)c1O | 146 to 147 °C
COc1ccc(CCCCOc2cc(-c3nc4cc(C(=O)O)ccc4[nH]3)ccc2OC)cc1 | 167 to 169 °C
Clc1cccc2c1nnn2C1CCCCC1 | 141 to 144 °C
COc1cc2c(c(Cl)c1Cl)C(=O)C(C1CCCC1)C2 (configuration not stated) | 116 to 117 °C
O=C(Nc1cccc2c(NN3CCOC3=O)ccnc12)c1c(Cl)cccc1Cl | > 250 °C
O=C(O)c1cc(Oc2cc(Cl)c(Cl)cc2Cl)ccc1[N+](=O)[O-] | 157 to 161 °C
CN(C)C1CCCN(C(=O)c2ccc(N)cc2)c2ccccc21 (configuration not stated) | 120 to 122 °C
N#Cc1ccccc1C(Cc1ccc(C(F)(F)F)cc1)Cn1cncn1 (configuration not stated) | 123 °C
CCOc1cc(Cc2cnc(N)nc2N)cc2c1OC(C)(C)C=C2C(C)(C)O | 209 to 210 °C
CC(=O)C1=C(O)C(=C(C)Nc2ccccc2Cl)C(=O)OC1=O | 143 to 145 °C

SMILES | melting point
O=C(O)CN1C(=O)c2ccc(C(=O)O)cc2C1=O | 262 to 265 °C
C=C(CO)C(C(=O)OC(c1ccccc1)c1ccccc1)N1C(=O)C2N=C(Cc3ccccc3)OC21 (configuration not stated) | 40 to 55 °C
COc1ccc(C#CC(C)N(O)C(N)=O)cc1 (configuration not stated) | 144 to 146 °C
CCC1(CC)CSSC[C@@H](C(=O)O)NC1=O | 127 to 128 °C
O=C(O)c1cc2c(s1)C(=O)CCC2 | 174 to 175 °C
CC(C)N1C(=O)C2CC(c3ccc(N)cc3)(C2)C1=O | 191 to 201 °C
CCCn1c(CCO)nc2c(N)nc3cc(OCCCNC(=O)C(C)C)ccc3c21 | 190 to 192 °C
NS(=O)(=O)c1cc2c(s1)CCC(=O)C2 | 148 to 150 °C
COc1c(F)cc(Cn2cnnc2S)cc1F | 124 to 126 °C
O=C(NCCCCN1CCC(c2ccc3c(c2OCCO)CCCC3)CC1)c1ccc(-c2ccc(Cl)cc2)cc1 | 162 °C
O=C1Nc2cccnc2N(C(=O)NCCN2CCC(CN3CCCCC3)C2)c2ccccc21 (configuration not stated) | 168 to 169 °C
CC(CN1CCC(C#N)C1)NC(=O)c1c[nH]c2ncc(-c3nn(C)c4cc(Cl)ccc34)nc12 (configuration not stated) | 206 to 209 °C
CCc1oc2ccccc2c1C(=O)c1ccc(Cl)c(S(N)(=O)=O)c1 | 170 to 172 °C
CCOC(=O)C(Cc1ccccc1)NC(=O)COc1ccc(C2=NNC(=O)NC2)cc1C (configuration not stated) | 148 to 150 °C
COc1ccc(NC(=O)OC(C)(C)C)cc1 | 93 to 94 °C
COC(=O)CCCCCOc1ccc(N=C=O)cc1 | 47 to 50 °C
O=C(O)c1csnc1-c1ccc(C(F)(F)F)cc1 | 195 to 196 °C
CCN(CC)c1ccc2cc(C(=O)O)c(=O)oc2c1 | 227 to 229 °C
CC(C)c1nc2ccccc2c(=O)n1NC(=O)C(C)c1ccccc1 (configuration not stated) | 48 to 55 °C
OCc1c(C(F)(F)F)nn2ccc3c(c12)CCO3 | 151 to 153 °C
COc1ccc2c(c1)C(=O)CC(C)(C)O2 | 71 to 73 °C
